≈ marks a conversion by molar mass, not a printed value.
Assays:
[1] = Distribution coefficient, logD of compound at pH 7.4 by chromatographic analysis; assay type: physicochemical; settings: octanol/water
[2] = Ratio of AUC(0 to 24 hrs) in femoral head to plasma in rat measured after 24 hrs; assay type: ADME, Bone/Plasma; settings: read-out: Selectivity ratio
[3] = Metabolic stability in CD1 mouse liver microsomes assessed as compound degradation in presence of NADPH measured after 20 mins; assay type: ADME, Microsome; settings: read-out: Drug degradation
[4] = tested on: Salmonella typhimurium; assay: Mutagenicity in Salmonella typhimurium […] by ames test; assay type: toxicity, organism-based; settings: salmonella enterica subsp. enterica serovar typhimurium
[5] = target: T1, Serine/threonine-protein kinase Sgk1 (Homo sapiens, UniProt O00141); assay: Inhibition of recombinant human SGK1 expressed in baculovirus expression system using 5-carboxyfluorescein -RPRAATF-NH2 as substrate preincubated for 30 mins followed by substrate addition in presence of 500 uM ATP and measured after 60 mins by microfluidics assay
T1 sequence (O00141 whole entry): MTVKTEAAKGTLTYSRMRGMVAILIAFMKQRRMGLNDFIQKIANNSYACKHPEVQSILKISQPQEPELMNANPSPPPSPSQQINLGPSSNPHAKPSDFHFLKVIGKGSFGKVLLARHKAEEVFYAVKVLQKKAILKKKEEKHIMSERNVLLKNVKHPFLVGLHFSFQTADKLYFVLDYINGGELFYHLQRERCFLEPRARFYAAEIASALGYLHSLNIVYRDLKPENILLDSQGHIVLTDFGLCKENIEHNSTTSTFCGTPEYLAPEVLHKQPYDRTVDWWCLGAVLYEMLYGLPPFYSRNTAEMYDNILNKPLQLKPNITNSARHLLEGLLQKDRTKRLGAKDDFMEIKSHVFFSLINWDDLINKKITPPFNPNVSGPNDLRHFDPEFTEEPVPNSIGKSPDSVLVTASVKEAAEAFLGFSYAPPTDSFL

[6] = Intrinsic clearance in C57BL/6 mouse at 3 mg/kg, iv; assay type: ADME, organism-based; settings: in vivo
[7] = Aqueous solubility of the compound at pH 7.4; assay type: physicochemical
[8] = target: T1, Serine/threonine-protein kinase Sgk1; assay: Inhibition of recombinant human SGK1 expressed in baculovirus expression system using 5-carboxyfluorescein -RPRAATF-NH2 as substrate preincubated for 30 mins followed by substrate addition in presence of 10 uM ATP and measured after 60 mins by microfluidics assay
[9] = Permeability in human Caco2 cells at 20 uM incubated for 120 mins by ESI-MS/MS analysis; assay type: ADME, cell-based; settings: Caco-2, read-out: permeability
[10] = Solubility of the compound in FeSSIF at pH 5.0; assay type: physicochemical
[11] = Chemical stability of the compound at pH 7.4 measured after 24 hrs; assay type: physicochemical; settings: buffer, read-out: Stability
[12] = Half life in C57BL/6 mouse plasma at 30 mg/kg, po measured after 8 hrs; assay type: ADME, organism-based
[13] = target: T2, Cytochrome P450 3A4 (Homo sapiens, UniProt P08684); assay: Inhibition of CYP3A4 in human liver microsomes using testosterone as substrate incubated for 30 mins by LC-MS/MS analysis; assay type: ADME
T2 sequence (P08684 whole entry): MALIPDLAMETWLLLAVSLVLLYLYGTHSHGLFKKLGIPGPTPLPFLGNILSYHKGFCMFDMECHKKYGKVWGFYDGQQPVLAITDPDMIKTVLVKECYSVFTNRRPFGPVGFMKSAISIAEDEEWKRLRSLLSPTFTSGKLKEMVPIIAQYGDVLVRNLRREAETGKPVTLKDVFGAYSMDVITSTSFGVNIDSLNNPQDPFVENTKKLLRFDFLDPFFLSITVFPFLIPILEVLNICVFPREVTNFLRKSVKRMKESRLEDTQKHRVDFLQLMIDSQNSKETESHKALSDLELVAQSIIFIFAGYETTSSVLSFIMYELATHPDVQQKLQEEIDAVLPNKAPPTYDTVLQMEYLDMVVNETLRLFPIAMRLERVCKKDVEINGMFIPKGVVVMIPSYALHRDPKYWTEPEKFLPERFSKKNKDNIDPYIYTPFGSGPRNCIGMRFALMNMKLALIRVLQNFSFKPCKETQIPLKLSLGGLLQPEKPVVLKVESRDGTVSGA

[14] = Oral bioavailability in C57BL/6 mouse at 30 mg/kg; assay type: ADME, organism-based; settings: in vivo
[15] = Cmax in C57BL/6 mouse plasma at 30 mg/kg, po measured after 8 hrs; assay type: ADME, organism-based; set-up: route oral, time 8 hrs, dose 30 mg/kg
[16] = Metabolic stability in Sprague-Dawley rat liver microsomes assessed as compound degradation in presence of NADPH measured after 20 mins; assay type: ADME, Microsome; settings: read-out: Drug degradation
[17] = AUC (0 to 24 hrs) in C57BL/6 mouse at 30 mg/kg, po; assay type: ADME, organism-based; set-up: time < 24 hr, route oral, dose 30 mg/kg; settings: in vivo
[18] = AUC (0 to 24 hrs) in C57BL/6 mouse at 3 mg/kg, iv; assay type: ADME, organism-based; set-up: time < 24 hr, route intravenous, dose 3 mg/kg; settings: in vivo
[19] = Ratio of AUC(0 to 24 hrs) in femoral head to plasma in rat measured after 1 hrs; assay type: ADME, Bone/Plasma; settings: read-out: Selectivity ratio
[20] = species on record: Homo sapiens; assay: Inhibition of p70S6Kb kinase (unknown origin) at 0.1 uM
[21] = Effect on chondrocyte hypertrophic differentiation mouse ATDC-5 cells assessed as inhibition of […] gene expression incubated for 2 weeks followed by compound added and every 3 days medium is changed measured after 2 weeks by RT-qPCR analysis; assay type: functional, cell-based
[22] = Metabolic stability in human liver microsomes assessed as compound degradation in presence of NADPH measured after 20 mins; assay type: ADME, Microsome; settings: read-out: Drug degradation
[23] = tested on: Salmonella typhimurium; assay: Mutagenicity in Salmonella typhimurium […] in presence of S9 fraction by ames test; assay type: toxicity, organism-based; settings: salmonella enterica subsp. enterica serovar typhimurium
[24] = target: T2, Cytochrome P450 3A4; assay: Inhibition of CYP3A4 in human liver microsomes using midazolam as substrate incubated for 10 mins by LC-MS/MS analysis; assay type: ADME
[25] = Tmax in Lewis rat plasma at 30 mg/kg, po measured after 8 hrs; assay type: ADME, organism-based
[26] = target: CYP3A4 (Homo sapiens, UniProt P08684); assay: Inhibition of CYP3A4 in human liver microsomes by measuring maximum efficacy; assay type: ADME
Chain of CYP3A4 (P08684 whole entry): as above

[27] = target: T3, hERG (KCNH2) (Homo sapiens, UniProt Q12809); assay: Inhibition of human ERG at 10 uM; assay type: toxicity
T3 sequence (Q12809 whole entry): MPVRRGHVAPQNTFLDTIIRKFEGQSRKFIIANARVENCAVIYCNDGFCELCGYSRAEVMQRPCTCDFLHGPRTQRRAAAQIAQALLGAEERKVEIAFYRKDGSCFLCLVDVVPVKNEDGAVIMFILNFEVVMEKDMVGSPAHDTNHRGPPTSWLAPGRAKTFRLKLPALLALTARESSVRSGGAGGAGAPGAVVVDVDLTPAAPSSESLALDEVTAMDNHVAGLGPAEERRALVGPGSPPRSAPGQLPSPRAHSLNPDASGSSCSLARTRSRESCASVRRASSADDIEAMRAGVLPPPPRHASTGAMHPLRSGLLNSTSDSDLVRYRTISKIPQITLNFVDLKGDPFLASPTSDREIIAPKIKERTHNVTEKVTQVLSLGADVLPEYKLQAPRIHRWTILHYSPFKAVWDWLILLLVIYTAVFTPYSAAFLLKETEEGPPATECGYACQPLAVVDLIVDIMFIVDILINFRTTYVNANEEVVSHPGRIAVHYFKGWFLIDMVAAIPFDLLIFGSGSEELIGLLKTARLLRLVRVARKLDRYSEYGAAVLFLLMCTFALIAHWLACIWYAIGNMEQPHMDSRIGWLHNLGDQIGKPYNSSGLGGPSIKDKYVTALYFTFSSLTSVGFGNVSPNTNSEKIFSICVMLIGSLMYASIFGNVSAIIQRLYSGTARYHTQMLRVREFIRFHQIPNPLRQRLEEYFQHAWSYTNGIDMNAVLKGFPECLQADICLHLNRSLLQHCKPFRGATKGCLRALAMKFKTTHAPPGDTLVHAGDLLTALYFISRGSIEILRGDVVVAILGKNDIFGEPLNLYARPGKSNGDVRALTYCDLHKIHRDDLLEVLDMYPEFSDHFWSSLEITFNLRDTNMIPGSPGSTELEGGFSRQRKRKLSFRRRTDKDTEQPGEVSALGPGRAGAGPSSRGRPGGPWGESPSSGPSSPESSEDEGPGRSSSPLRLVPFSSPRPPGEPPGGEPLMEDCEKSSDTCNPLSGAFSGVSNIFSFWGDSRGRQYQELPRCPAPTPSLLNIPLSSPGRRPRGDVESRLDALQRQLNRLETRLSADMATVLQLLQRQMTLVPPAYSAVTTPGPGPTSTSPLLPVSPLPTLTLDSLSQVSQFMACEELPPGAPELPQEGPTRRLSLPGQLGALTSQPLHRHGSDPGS

[28] = target: T3, hERG (KCNH2); assay: Inhibition of human ERG at 1 uM relative to control; assay type: toxicity
[29] = AUC (0 to 24 hrs) in Lewis rat plasma at 30 mg/kg, po measured after 8 hrs; assay type: ADME, organism-based; set-up: route oral, dose 30 mg/kg, time 8 hrs
[30] = Half life in C57BL/6 mouse plasma at 3 mg/kg, iv; assay type: ADME, organism-based
[31] = target: Ribosomal protein S6 kinase alpha-1 (Homo sapiens) (UniProt Q15418); assay: Inhibition of RSK1 kinase (unknown origin) at 0.1 uM
Chain of Ribosomal protein S6 kinase alpha-1 (Homo sapiens) (Q15418 whole entry): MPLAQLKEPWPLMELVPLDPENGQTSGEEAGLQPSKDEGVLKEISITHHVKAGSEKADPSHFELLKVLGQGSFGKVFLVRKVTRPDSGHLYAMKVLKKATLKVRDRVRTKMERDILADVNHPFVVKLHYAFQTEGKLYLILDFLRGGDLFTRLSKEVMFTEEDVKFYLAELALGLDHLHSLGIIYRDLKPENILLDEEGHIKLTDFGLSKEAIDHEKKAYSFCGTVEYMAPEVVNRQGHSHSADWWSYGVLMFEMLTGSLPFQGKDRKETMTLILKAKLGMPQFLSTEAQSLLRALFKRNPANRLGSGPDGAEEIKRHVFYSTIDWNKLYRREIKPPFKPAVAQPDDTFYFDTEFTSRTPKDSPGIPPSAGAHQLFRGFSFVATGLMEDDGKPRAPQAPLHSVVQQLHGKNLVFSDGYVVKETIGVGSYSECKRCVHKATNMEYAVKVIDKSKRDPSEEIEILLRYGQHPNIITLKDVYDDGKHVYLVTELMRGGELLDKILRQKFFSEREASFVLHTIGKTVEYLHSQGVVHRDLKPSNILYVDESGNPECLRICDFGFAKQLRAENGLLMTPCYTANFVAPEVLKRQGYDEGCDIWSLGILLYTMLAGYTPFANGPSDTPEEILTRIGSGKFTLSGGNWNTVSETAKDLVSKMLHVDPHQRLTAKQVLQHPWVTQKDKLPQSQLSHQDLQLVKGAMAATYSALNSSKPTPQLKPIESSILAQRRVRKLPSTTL

[32] = Tmax in Lewis rat femoral head cartilage at 30 mg/kg, po measured after 8 hrs; assay type: ADME, organism-based, Femur
[33] = target: T4, Serine/threonine-protein kinase Sgk1 (Mus musculus, UniProt Q9WVC6); assay: Inhibition of mouse SGK1 in presence 500 uM presence of ATP
T4 sequence (Q9WVC6 whole entry): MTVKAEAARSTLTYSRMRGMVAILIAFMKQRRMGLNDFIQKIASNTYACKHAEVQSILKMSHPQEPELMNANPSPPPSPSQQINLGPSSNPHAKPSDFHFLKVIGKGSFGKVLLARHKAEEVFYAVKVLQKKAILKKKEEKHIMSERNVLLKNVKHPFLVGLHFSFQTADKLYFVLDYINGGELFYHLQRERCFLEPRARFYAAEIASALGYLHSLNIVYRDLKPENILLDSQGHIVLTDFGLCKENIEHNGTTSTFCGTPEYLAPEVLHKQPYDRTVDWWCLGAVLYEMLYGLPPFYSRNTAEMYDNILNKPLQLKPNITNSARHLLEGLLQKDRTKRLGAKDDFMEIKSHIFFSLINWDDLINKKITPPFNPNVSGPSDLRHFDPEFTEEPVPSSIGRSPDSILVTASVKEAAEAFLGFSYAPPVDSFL

[34] = Cmax in Lewis rat plasma at 30 mg/kg, po measured after 8 hrs; assay type: ADME, organism-based; set-up: route oral, time 8 hrs, dose 30 mg/kg
[35] = AUC (0 to 24 hrs) in Lewis rat femoral head cartilage at 30 mg/kg, po measured after 8 hrs; assay type: ADME, organism-based, Femur; set-up: route oral, dose 30 mg/kg, time 8 hrs
[36] = Cmax in Lewis rat femoral head cartilage at 30 mg/kg, po measured after 8 hrs; assay type: ADME, organism-based, Femur; set-up: route oral, time 8 hrs, dose 30 mg/kg
[37] = Intrinsic clearance in human hepatocytes assessed per 10^-6 cells; assay type: ADME, cell-based, Hepatocyte
[38] = Inhibition of rat SGK1 in presence 500 uM presence of ATP
[39] = Initial plasma concentration in C57BL/6 mouse at 3 mg/kg, iv; assay type: ADME, organism-based
[40] = Volume of distribution at steady state in C57BL/6 mouse at 3 mg/kg, iv qd; assay type: ADME, organism-based; settings: in vivo, read-out: Vdss
[41] = Tmax in C57BL/6 mouse plasma at 30 mg/kg, po; assay type: ADME, organism-based

Cc1n[nH]c2nc(-c3ccc(NS(=O)(=O)c4cc(Cl)ccc4F)cc3)nc(OC3CCN(C(C)C)CC3)c12
chromatographic logD [1]: 1.3 | Kp at 24 h [2]: 1.1 | metabolised at 20 min [3]: 15% | Activity [4]: Non-Toxic | IC50 [5]: 3 nM | CL [6]: 17 mL/min/kg | solubility [7]: < 1 µg/mL | IC50 [8]: 2 nM | Papp at 2 h, 20 µM [9]: 4.6 ×10⁻⁶ cm/s | solubility [10]: 281 µg/mL (≈ 503 µM) | remaining at 24 h [11]: 100% | half-life [12]: 4.8 h | IC50 [13]: > 30000 nM | bioavailability [14]: 72% | Cmax [15]: 2200 ng/mL | metabolised at 20 min [16]: 12% | AUC(0-t) at 24 h [17]: 22800 ng·h/mL | AUC(0-t) at 24 h [18]: 3200 ng·h/mL | Kp at 1 h [19]: 0.1 | inhibition [20]: 58% | IC50 [21]: 70 nM | metabolised at 20 min [22]: 9% | Activity [23]: Non-Toxic | IC50 [24]: > 30000 nM | Tmax [25]: 8 h | Emax [26]: 0% | inhibition at 10 µM [27]: 91% | inhibition at 1 µM [28]: 60% | AUC(0-t) at 8 h [29]: 60100 ng·h/mL | half-life [30]: 2.1 h | inhibition [31]: 64% | Tmax [32]: 8 h | IC50 [33]: 171 nM | Cmax [34]: 4200 ng/mL | AUC(0-t) at 8 h [35]: 16900 ng·h/mL | Cmax [36]: 1200 ng/g | CLH [37]: 0.042 mL/h | IC50 [38]: 224 nM | C0 [39]: 2200 ng/mL | Vd [40]: 2.4 L/kg | Tmax [41]: 3.3 h

Source: ChEMBL document CHEMBL5042500 (J Med Chem, 2022)
